How the values were obtained:
[1] = molecular target: N-succinyl-diaminopimelate aminotransferase (Escherichia coli); test: Compound was tested for binding affinity against N-Succinyl Diaminopimelic Acid Aminotransferase from Escherichia coli
[2] = molecular target: N-succinyl-diaminopimelate aminotransferase (Escherichia coli); test: as above; remark: listed apart in the source
[3] = molecular target: N-succinyl-diaminopimelate aminotransferase (Escherichia coli); test: Compound was tested for 50% inhibition of N-Succinyl Diaminopimelic Acid Aminotransferase (DAP-AT) from Escherichia coli.

SMILES	Ki [1] [µM]	IC50 [2] [µM]	IC50 [3] [µM]
NNC(CCC[C@H](NC(=O)CCC(=O)O)C(=O)O)C(=O)O (stereo partly drawn) [(S)-2-(3-Carboxy-propionylamino)-6-hydrazino-heptanedioic acid]	0.022	0.5	–
CC(=O)N[C@@H](CC(=O)O)C(=O)N[C@@H](CCCC(NN)C(=O)O)C(=O)O (stereo partly drawn) [(S)-2-((S)-2-Acetylamino-3-carboxy-propionylamino)-6-hydrazino-heptanedioic acid]	0.169	–	0.8
CC(=O)N[C@@H](Cc1ccccc1)C(=O)N[C@@H](CCCC(=O)C(=O)O)C(=O)O [dilithium 2-[1-methylcarboxamido-2-phenyl-(1S)-ethylcarboxamido]-6-oxo-(2S)-heptanedioate]	–	> 50000	–

— BindingDB's records for doi:10.1016/s0960-894x(98)00149-8 (University of Bristol, 1999)
